ChEMBL document CHEMBL3994598, “Silychristin: Skeletal Alterations and Biological Activities” (J Nat Prod, 2016)

What was measured:
[1] = Cytotoxicity against human primary prostate mesenchymal cells at 0.0003 to 100 uM after 48 hrs by ATPlite assay; assay type: cell-based; conditions: primary prostate mesenchymal cell
[2] = Partition coefficient, logP of the compound in octan-1-ol and phosphate buffer at pH 7.4 at 25 degC after 2 hrs by UV-vis spectrometer; assay type: physicochemical; conditions: octan-1-ol/phosphate buffer
MDA-MB-231 = assay: Cytotoxicity against human MDA-MB-231 cells at 0.0003 to 100 uM after 48 hrs by ATPlite assay; assay type: cell-based; conditions: mda-mb-231, 48 h
[3] = Antioxidant activity assessed as trolox equivalent of ABTS radical scavenging activity at 100 uM incubated for >= 5 mins; assay type: functional
TERT-RPE1 = assay: Cytotoxicity against human RPE1 cells at 0.0003 to 100 uM after 48 hrs by ATPlite assay; assay type: cell-based; conditions: tert-rpe1, 48 h
HepG2 = assay: Cytotoxicity against human HepG2 cells at 0.0003 to 100 uM after 48 hrs by ATPlite assay; assay type: cell-based; conditions: hepg2, 48 h
BJ = assay: Cytotoxicity against human BJ cells at 0.0003 to 100 uM after 48 hrs by ATPlite assay; assay type: cell-based
[4] = Antiradical activity assessed as gallic acid equivalents of Foline-Ciocalteu reagent reducing capacity at 1 mM preincubated for 5 mins followed by Na2CO3 addition measured after 90 mins
CAL-51 = assay: Cytotoxicity against human CAL51 at 0.0003 to 100 uM after 48 hrs by ATPlite assay; assay type: cell-based; conditions: cal-51, 48 h
[5] = Antioxidant activity assessed as DPPH radical scavenging activity after 30 mins; assay type: functional
HL-60 = assay: Cytotoxicity against human HL60 cells at 0.0003 to 100 uM after 48 hrs by ATPlite assay; assay type: cell-based; conditions: hl-60, 48 h
PC-3 = assay: Cytotoxicity against human PC3 cells at 0.0003 to 100 uM after 48 hrs by ATPlite assay; assay type: cell-based; conditions: pc-3, 48 h
MCF7 = assay: Cytotoxicity against human MCF7 cells at 0.0003 to 100 uM after 48 hrs by ATPlite assay; assay type: cell-based; conditions: mcf7, 48 h
Liver = assay: Antioxidant activity against tert-butyl hydroperoxide-induced lipoperoxidation in rat liver microsomal membranes incubated for 60 mins by TBARS assay; assay type: functional, cell membranes, Microsomal Membrane; conditions: 1 h
K562 = assay: Cytotoxicity against human K562 cells at 0.0003 to 100 uM after 48 hrs by ATPlite assay; assay type: cell-based; conditions: k562, 48 h

Compound	logD at 2 h [2]	IC50 [5]	IC50 (Liver)	Activity [1]	Activity (MDA-MB-231)	Activity [3]	Activity (TERT-RPE1)	Activity (HepG2)	Activity (BJ)	Activity [4]	Activity (CAL-51)	Activity (HL-60)	Activity (PC-3)	Activity (MCF7)	Activity (K562)
COc1cc(-c2oc3c(O)cc([C@H]4Oc5cc(O)cc(O)c5C(=O)[C@@H]4O)cc3c2C)ccc1O	-0.74	17.9 µM	4.12 µM	Toxic	Toxic	0.99 equiv	Toxic	Toxic	Toxic	1.74 equiv	Toxic	Toxic	Toxic	Toxic	Toxic
COc1cc(C2Oc3cc([C@H]4Oc5cc(O)cc(O)c5C(=O)[C@@H]4O)ccc3OC2CO)ccc1O (mixture of isomers) [SILIBININ]	–	553 µM	67 µM	–	–	0.47 equiv	–	–	–	0.92 equiv	–	–	–	–	–
CC[C@@]1(O)C(=O)OCc2c1cc1n(c2=O)Cc2cc3ccccc3nc2-1 [CAMPTOTHECIN]	–	–	–	Toxic	Toxic	–	Toxic	Toxic	Toxic	–	Toxic	Toxic	Toxic	Toxic	Toxic
COc1cc([C@@H]2Oc3c(O)ccc([C@H]4Oc5cc(O)cc(O)c5C(=O)[C@@H]4O)c3[C@H]2CO)ccc1O [ISOSILYCHRISTIN]	-0.47	53.1 µM	36.7 µM	Non-Toxic	Non-Toxic	0.65 equiv	Non-Toxic	Non-Toxic	Non-Toxic	1.74 equiv	Non-Toxic	Non-Toxic	Non-Toxic	Non-Toxic	Non-Toxic
COc1cc([C@H]2Oc3cc([C@H]4Oc5cc(O)cc(O)c5C(=O)[C@@H]4O)ccc3O[C@@H]2CO)ccc1O [SILYBIN A]	–	–	–	Toxic	Toxic	–	Toxic	Toxic	Toxic	–	Toxic	Toxic	Toxic	Toxic	Toxic
COc1cc([C@@H]2Oc3cc([C@H]4Oc5cc(O)cc(O)c5C(=O)[C@@H]4O)ccc3O[C@H]2CO)ccc1O [SILYBIN B]	–	–	–	Toxic	Toxic	–	Toxic	Toxic	Toxic	–	Toxic	Toxic	Toxic	Toxic	Toxic

Continued, in another order:

logD at 2 h [2]	IC50 [5]	IC50 (Liver)	Compound	Activity [1]	Activity (MDA-MB-231)	Activity [3]	Activity (TERT-RPE1)	Activity (HepG2)	Activity (BJ)	Activity [4]	Activity (CAL-51)	Activity (HL-60)	Activity (PC-3)	Activity (MCF7)	Activity (K562)
-0.24	3.56 µM	6.43 µM	COc1cc(-c2oc3c(O)cc(-c4oc5cc(O)cc(O)c5c(=O)c4O)cc3c2C)ccc1O	Toxic	Toxic	1.43 equiv	Toxic	Toxic	Toxic	2.13 equiv	Toxic	Toxic	Toxic	Toxic	Toxic
-0.37	43 µM	12.6 µM	COc1cc([C@@H]2Oc3c(O)cc([C@@H]4CC(=O)c5c(O)cc(O)cc5O4)cc3[C@H]2CO)ccc1O	Toxic	Toxic	0.77 equiv	Toxic	Toxic	Toxic	1.24 equiv	Toxic	Toxic	Toxic	Toxic	Toxic
-1.01	4.88 µM	5.45 µM	COc1cc([C@@H]2Oc3c(O)cc(-c4oc5cc(O)cc(O)c5c(=O)c4O)cc3[C@H]2CO)ccc1O	Toxic	Toxic	1.79 equiv	Toxic	Toxic	Toxic	3.06 equiv	Toxic	Toxic	Toxic	Toxic	Toxic
–	9.32 µM	13 µM	COc1cc(C2Oc3cc(-c4oc5cc(O)cc(O)c5c(=O)c4O)ccc3OC2CO)ccc1O (stereo not drawn) [DEHYDROSILYLBIN]	Toxic	Toxic	0.56 equiv	Toxic	Toxic	Toxic	1.29 equiv	Toxic	Toxic	Toxic	Toxic	Toxic
-0.39	19 µM	10.3 µM	COc1cc(C2Oc3c(O)cc([C@H]4Oc5cc(O)cc(O)c5C(=O)[C@@H]4O)cc3C2CO)ccc1O (stereo partly drawn) [SILICRISTIN]	Non-Toxic	Non-Toxic	1.09 equiv	Non-Toxic	Non-Toxic	Non-Toxic	1.49 equiv	Non-Toxic	Non-Toxic	Non-Toxic	Non-Toxic	Non-Toxic
